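Step 1: Grow cells in 96-well plates. Step 2: Expose to compound for 48 hours at 5 concentrations. Step 3: Interpolate endpoints linearly; if unreached, use highest concentration. GI50 is the concentration that inhibits growth by half. TGI marks complete inhibition of growth.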 Some results are limits rather than exact numbers.

Some test systems named below: CAKI-1 renal; EKVX NSCLC; IGROV1 ovarian; LOX IMVI melanoma; SK-OV-3 ovarian; SNB-19 CNS; TK-10 renal; U251 CNS; UACC-62 melanoma; MALME-3M melanoma.
What all share (assay): DTP human tumour cell line panel, 48 h

What is called TGI is the concentration at which net growth stops. As for `COC(=O)C1Cc2c([nH]c3ccccc23)-c2[nH]c3ccccc3c2CC(NC(C)=O)C(=O)N2CCCC2C(=O)N1` (centres undefined), the TGI with CAKI-1 renal, in the experiment with EKVX NSCLC, with IGROV1 ovarian, in the experiment on LOX IMVI melanoma, in the experiment with SK-OV-3 ovarian and in the experiment on SNB-19 CNS was greater than 100 µM throughout. For the same compound, the TGI in the experiment on TK-10 renal, in the experiment with U251 CNS and in the experiment on UACC-62 melanoma was greater than 100 µM each time.

For the compound `Cc1csc2c(=O)n(COCc3ccccc3)c(=O)[nH]c12`, the TGI in the experiment with CAKI-1 renal, in the experiment on EKVX NSCLC, with IGROV1 ovarian, with LOX IMVI melanoma, with MALME-3M melanoma and in the experiment on SNB-19 CNS was greater than 100 µM each time. Further, the total growth inhibition concentration (TGI) with TK-10 renal and in the experiment with U251 CNS was greater than 100 µM in each case.

In general, GI50 refers to the concentration that inhibits growth by half. For the compound `Nc1nc(N)c2nc(CNc3ccc(C(=O)NC(CCNC(=O)c4ccccc4C(=O)O)C(=O)O)cc3)cnc2n1` (centres undefined), the GI50 in the experiment on CAKI-1 renal is 0.0666 µM; in the experiment with EKVX NSCLC, 0.0214 µM; with IGROV1 ovarian, 0.0358 µM; in the experiment with LOX IMVI melanoma, 0.00439 µM. Also, the TGI in the experiment with CAKI-1 renal, in the experiment with EKVX NSCLC, in the experiment on IGROV1 ovarian, in the experiment on LOX IMVI melanoma, with MALME-3M melanoma and with SK-OV-3 ovarian was greater than 100 µM in each case. Also, the TGI with SNB-19 CNS, in the experiment on TK-10 renal and in the experiment on U251 CNS was greater than 100 µM throughout.

As for `COc1cc(C(=O)N(C(=O)N2CCCCC2)c2ccccc2)cc(OC)c1OC`, the concentration for total growth inhibition (TGI) with CAKI-1 renal, in the experiment with EKVX NSCLC, in the experiment on IGROV1 ovarian, in the experiment on LOX IMVI melanoma, in the experiment with SK-OV-3 ovarian and in the experiment on SNB-19 CNS was greater than 100 µM in each case. For the same compound, the TGI with U251 CNS and with UACC-62 melanoma was greater than 100 µM throughout.

As for `CCSc1[nH]c(NC(=NC(C)C)NC(=O)c2ccccc2)c(C(N)=O)c1C(N)=O`, the TGI in the experiment on CAKI-1 renal, in the experiment with EKVX NSCLC, in the experiment with IGROV1 ovarian, in the experiment with LOX IMVI melanoma, with MALME-3M melanoma and in the experiment with SK-OV-3 ovarian was greater than 10 µM in each case. Besides, the TGI in the experiment on TK-10 renal and in the experiment on UACC-62 melanoma was greater than 10 µM in each case.

As to `Cc1ccc(S(=O)(=O)NCCCSCCO)cc1`, the TGI in the experiment with LOX IMVI melanoma, in the experiment with SK-OV-3 ovarian, with SNB-19 CNS, in the experiment with TK-10 renal and in the experiment on U251 CNS was greater than 100 µM in each case.

For `COC(=O)CN(CC1O[C@@H]2OC(C)(C)O[C@@H]2C1NC(C)=O)C(=O)OCc1ccccc1` (some centres undefined), the total growth inhibition concentration (TGI) with CAKI-1 renal, in the experiment with EKVX NSCLC, in the experiment with IGROV1 ovarian, with LOX IMVI melanoma, in the experiment with SK-OV-3 ovarian and in the experiment on SNB-19 CNS was greater than 100 µM each time. For the same compound, the concentration for total growth inhibition (TGI) with TK-10 renal, in the experiment on U251 CNS and in the experiment on UACC-62 melanoma was greater than 100 µM in each case.

Take `CCN(CCN(CC)C(=O)NC)C(=O)NC`: the TGI in the experiment on EKVX NSCLC, in the experiment on IGROV1 ovarian, with LOX IMVI melanoma, with MALME-3M melanoma, with SK-OV-3 ovarian and in the experiment with SNB-19 CNS was greater than 100 µM in each case. Besides, the TGI in the experiment with TK-10 renal, with U251 CNS and in the experiment with UACC-62 melanoma was greater than 100 µM each time.

For `CC(=O)CC12NC(=O)N(C)N=C1N(C)C(=O)N(C)C2=O` (centres undefined), the total growth inhibition concentration (TGI) is greater than 100 µM with CAKI-1 renal; greater than 100 µM in the experiment with EKVX NSCLC; greater than 100 µM in the experiment with IGROV1 ovarian; 40.8 µM in the experiment with LOX IMVI melanoma; 26.5 µM in the experiment with MALME-3M melanoma; greater than 100 µM in the experiment with SK-OV-3 ovarian. Further, the TGI is greater than 100 µM in the experiment on TK-10 renal, greater than 100 µM with U251 CNS and 73.3 µM with UACC-62 melanoma.

Take `O=P(Nc1cccc(Cl)c1)(Oc1ccccc1)N(CCCl)CCCl` (centres undefined): the TGI in the experiment on CAKI-1 renal is 31.5 µM; in the experiment with EKVX NSCLC, 33.9 µM; in the experiment with IGROV1 ovarian, 30.4 µM; in the experiment on MALME-3M melanoma, 28.5 µM; in the experiment on SK-OV-3 ovarian it was greater than 100 µM; in the experiment on TK-10 renal, 30.6 µM. The concentration for total growth inhibition (TGI) with U251 CNS came out at 28.3 µM; in the experiment with UACC-62 melanoma, 24.4 µM.

Consider `C[C@]12CCC(=O)C=C1CC[C@@H]1C2CC[C@@]2(C)C1CC[C@@H]2OC(=O)C12OC1CCC2=O` (some centres undefined), for which the TGI with EKVX NSCLC is 31.9 µM; in the experiment on IGROV1 ovarian, 23.6 µM; in the experiment on LOX IMVI melanoma it was 31.1 µM; with MALME-3M melanoma, 33.9 µM; with SK-OV-3 ovarian, greater than 100 µM; in the experiment on SNB-19 CNS it was 44.3 µM. In addition, the total growth inhibition concentration (TGI) in the experiment on TK-10 renal came out at 35.9 µM; in the experiment on U251 CNS, 29.1 µM; in the experiment on UACC-62 melanoma it was 35.2 µM.

Consider `CCOP(=O)(OCC)C(C)(CC)/N=C(\N)NC#N` (centres undefined), for which the TGI in the experiment on EKVX NSCLC, in the experiment on IGROV1 ovarian, in the experiment on LOX IMVI melanoma, in the experiment with MALME-3M melanoma, in the experiment with SK-OV-3 ovarian and with SNB-19 CNS was greater than 100 µM in each case. For the same compound, the TGI with TK-10 renal, with U251 CNS and in the experiment on UACC-62 melanoma was greater than 100 µM in each case.

Take `COc1c(C)c(C/C=C(\C)CCCCO)c(OC)c2ccccc12`: the concentration for total growth inhibition (TGI) was 94.9 µM in the experiment on CAKI-1 renal; greater than 100 µM with EKVX NSCLC; greater than 100 µM in the experiment with IGROV1 ovarian; 37.6 µM with LOX IMVI melanoma; greater than 100 µM in the experiment on SK-OV-3 ovarian; greater than 100 µM in the experiment on SNB-19 CNS. Besides, the TGI with TK-10 renal, in the experiment on U251 CNS and in the experiment with UACC-62 melanoma was greater than 100 µM each time.

As to `COc1ccc(C=NCCCN=Cc2ccc(OC)cc2O)c(O)c1`, the TGI in the experiment with EKVX NSCLC is greater than 100 µM; with IGROV1 ovarian, greater than 100 µM; in the experiment on MALME-3M melanoma, 71.5 µM; with SNB-19 CNS, greater than 100 µM; with TK-10 renal, greater than 100 µM; with U251 CNS it was greater than 100 µM. This compound also had a total growth inhibition concentration (TGI) with UACC-62 melanoma greater than 100 µM.

For the compound `CC1(C)OC2[C@@H](CO[C@@]3([C@H]4OC(C)(C)O[C@@H]4CO)OC(C)(C)O[C@@H]23)O1` (some centres undefined), the TGI in the experiment with EKVX NSCLC, in the experiment on IGROV1 ovarian, in the experiment with LOX IMVI melanoma, in the experiment with MALME-3M melanoma, in the experiment on SK-OV-3 ovarian and in the experiment with SNB-19 CNS was greater than 100 µM throughout. Besides, the concentration for total growth inhibition (TGI) with TK-10 renal, in the experiment on U251 CNS and with UACC-62 melanoma was greater than 100 µM each time.

The values above are taken from PubChem BioAssay (NCI).
